The values that follow come from article PMC7488488 (Acta Pharmaceutica Sinica. B, 2019).

The target of one test is MDM2 (Homo sapiens, UniProt Q00987). In words: TR-FRET. Format: binding. As to conditions: for inhibition at 1 µM: read-out: Inhibition rate at 1.0 μmol/L, MDM2.
Another test concerns U87MG cells. In words: MTT cell proliferation assay. Format: cell-based. As to conditions: Homo sapiens, U-87 MG, 24 h, read-out: Anti-proliferative activity IC50, U87MG.
The subject of another test is U251 cells. In words: MTT cell proliferation assay. It is filed as cell-based. The note with it: Homo sapiens, U-251, 24 h, read-out: Anti-proliferative activity IC50, U251.
Another test has as its system T98G cells. In words: MTT cell proliferation assay. The note with it: Homo sapiens, T98G, 24 h, read-out: Anti-proliferative activity IC50, T98G. Format: cell-based.

Bounds are passed on as bounds.

Sequence of MDM2 (Q00987 whole entry): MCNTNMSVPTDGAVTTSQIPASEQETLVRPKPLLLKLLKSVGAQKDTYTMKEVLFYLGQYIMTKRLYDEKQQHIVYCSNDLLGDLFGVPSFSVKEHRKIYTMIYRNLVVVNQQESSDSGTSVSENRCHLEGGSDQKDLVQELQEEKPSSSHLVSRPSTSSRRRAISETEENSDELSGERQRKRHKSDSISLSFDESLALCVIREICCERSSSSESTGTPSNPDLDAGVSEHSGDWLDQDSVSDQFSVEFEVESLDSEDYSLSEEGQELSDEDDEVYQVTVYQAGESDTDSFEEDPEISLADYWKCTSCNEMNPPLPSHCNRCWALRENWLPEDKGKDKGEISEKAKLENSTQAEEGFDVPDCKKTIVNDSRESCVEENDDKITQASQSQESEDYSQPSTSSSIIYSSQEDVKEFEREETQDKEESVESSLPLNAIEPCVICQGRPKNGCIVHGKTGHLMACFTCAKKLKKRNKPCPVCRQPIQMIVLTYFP

In the case of `CCOC(=O)[C@H]1Cc2c(cc([N+](=O)[O-])cc2[N+](=O)[O-])[C@H](O)[C@]12C(=O)Nc1ccc(F)cc12` [4b′, Ethyl (1′S,3S,3′S)-5-fluoro-1′-hydroxy-5′,7′-dinitro-2-oxo-3′,4′-dihydro-1′H-spiro[indoline-3,2′-naphthalene]-3′-carboxylate], the inhibition at 1 µM on MDM2 was 55.6%. Moreover, the IC50 in the test with U87MG cells, in the test on U251 cells and in the test on T98G cells was greater than 50 µM each time.

On to `CCOC(=O)[C@H]1Cc2c(cc([N+](=O)[O-])cc2[N+](=O)[O-])[C@H](O)[C@]12C(=O)Nc1cccc(Br)c12` [4f′, Ethyl (1′S,3S,3′S)-4-bromo-1′-hydroxy-5′,7′-dinitro-2-oxo-3′,4′-dihydro-1′H-spiro[indoline-3,2′-naphthalene]-3′-carboxylate], for which the inhibition at 1 µM at MDM2 was 54.8%. Moreover, the IC50 in the test with U87MG cells is 69.8 µM; in the test with U251 cells it was greater than 50 µM; with T98G cells, greater than 50 µM.

In the case of `O=C(c1ccc(F)cc1)[C@H]1Cc2c(cc([N+](=O)[O-])cc2[N+](=O)[O-])[C@@H](O)[C@@]12C(=O)Nc1ccccc12` [4m, (1′R,3R,3′S)-3′-(4-Fluorobenzoyl)-1′-hydroxy-5′,7′-dinitro-3′,4′-dihydro-1′H-spiro[indoline-3,2′-naphthalen]-2-one], on MDM2, the inhibition at 1 µM was 44.6 ± 3.7%. Further, the IC50 in the test with U87MG cells amounted to 47.2 ± 3.8 µM; in the test on U251 cells, 39.5 ± 3.8 µM; in the test with T98G cells, 37.1 ± 3.2 µM.

Regarding `CCOC(=O)[C@H]1Cc2c(cc([N+](=O)[O-])cc2[N+](=O)[O-])[C@@H](O)[C@@]12C(=O)Nc1cccc(Br)c12` [4f, Ethyl (1′R,3R,3′S)-4-bromo-1′-hydroxy-5′,7′-dinitro-2-oxo-3′,4′-dihydro-1′H-spiro[indoline-3,2′-naphthalene]-3′-carboxylate], the inhibition at 1 µM on MDM2 is 66.9 ± 9.1%. Moreover, the IC50 stood at 20.7 ± 3.5 µM in the test with U87MG cells, 25.8 ± 4.2 µM in the test on U251 cells and 27.2 ± 3 µM in the test with T98G cells.

Turning to `O=C(c1ccccc1F)[C@H]1Cc2c(cc([N+](=O)[O-])cc2[N+](=O)[O-])[C@@H](O)[C@@]12C(=O)Nc1ccccc12` [4l, (1′R,3R,3′S)-3′-(2-Fluorobenzoyl)-1′-hydroxy-5′,7′-dinitro-3′,4′-dihydro-1′H-spiro[indoline-3,2′-naphthalen]-2-one], the inhibition at 1 µM at MDM2 was found to be 47.2 ± 5.71%. The 50% inhibitory concentration (IC50) in the test with U87MG cells turned out to be 32.5 ± 4.7 µM; in the test on U251 cells, 38.7 ± 6.1 µM; in the test with T98G cells, 43.6 ± 4.8 µM.

Turning to `CCOC(=O)[C@H]1Cc2c(cc([N+](=O)[O-])cc2[N+](=O)[O-])[C@@H](O)[C@@]12C(=O)Nc1ccc(Cl)cc12` [4d, Ethyl (1′R,3R,3′S)-5-chloro-1′-hydroxy-5′,7′-dinitro-2-oxo-3′,4′-dihydro-1′H-spiro[indoline-3,2′-naphthalene]-3′-carboxylate], the IC50 came out at 520 ± 70 nM at MDM2, 8.3 ± 1.5 µM in the test with U87MG cells, 17.8 ± 3.2 µM in the test on U251 cells and 21.6 ± 4.5 µM in the test on T98G cells. Besides, the inhibition at 1 µM at MDM2 is 82.6 ± 8.4%.

`CCOC(=O)[C@H]1Cc2c(cc([N+](=O)[O-])cc2[N+](=O)[O-])[C@@H](O)[C@@]12C(=O)Nc1cc(Br)ccc12` [4h, Ethyl (1′R,3R,3′S)-6-bromo-1′-hydroxy-5′,7′-dinitro-2-oxo-3′,4′-dihydro-1′H-spiro[indoline-3,2′-naphthalene]-3′-carboxylate]: the inhibition at 1 µM at MDM2 was 76.7 ± 5.2%. Besides, the IC50 with U87MG cells turned out to be 20.4 ± 3.3 µM; in the test on U251 cells, 18.3 ± 1.5 µM; with T98G cells, 14.4 ± 2.8 µM.

As to `O=C(c1ccccc1)[C@H]1Cc2c(cc([N+](=O)[O-])cc2[N+](=O)[O-])[C@H](O)[C@]12C(=O)Nc1ccccc12` [4k′, (1′S,3S,3′S)-3′-Benzoyl-1′-hydroxy-5′,7′-dinitro-3′,4′-dihydro-1′H-spiro[indoline-3,2′-naphthalen]-2-one], the inhibition at 1 µM on MDM2 is 35.4%. Besides, the IC50 with U87MG cells, in the test on U251 cells and in the test on T98G cells was greater than 50 µM in each case.
